# According to BindingDB's records for doi:10.1073/pnas.92.8.3298 (Agouron Pharmaceuticals, 1995):
# Target: T1, Dimer of Gag-Pol polyprotein [489-587] (Human immunodeficiency virus 1, UniProt P12497)
# T1 construct: 489-587
# Assay: Protease Inhibition Assay
# Conditions: pH 5.6; 37 °C
# Description: Protease activity was measured by continuous chromogenic assay. The chromogenic peptide His-Lys-Ala-Arg-Val-Leu- (p-NO2-Phe)-Glu-Ala-Nleu-Ser (Bachem) was used as a substrate. Reactions were followed by the decrease of absorbance at 300 nm measured by spectrophotometer. Experimental results were analyzed by the nonlinear regression analysis, using a mathematical model for tight binding inhibitors.
row,Structure (SMILES),Ki
1,"CC(C)(C)NC(=O)c1ccccc1CC(O)CSc1ccccc1NC(=O)C(C)(C)C (stereo not drawn) [N-tert-butyl-2-(3-{[2-(2,2-dimethylpropanamido)phenyl]sulfanyl}-2-hydroxypropyl)benzamide]",> 100000 nM
2,CC(C)(C)NC(=O)c1ccccc1CCC(O)Cc1ccc2ccccc2c1C(=O)NC(C)(C)C (stereo not drawn) [N-tert-butyl-2-{4-[2-(tert-butylcarbamoyl)phenyl]-2-hydroxybutyl}naphthalene-1-carboxamide],2200 nM
3,CC(C)(c1ccccc1)N(CCO)C(=O)c1ccccc1CCC(O)Cc1ccccc1C(=O)N(CCO)C(C)(C)c1ccccc1 (stereo not drawn) [2-(3-hydroxy-4-{2-[(2-hydroxyethyl)(2-phenylpropan-2-yl)carbamoyl]phenyl}butyl)-N-(2-hydroxyethyl)-N-(2-phenylpropan-2-yl)benzamide],22 nM
4,CCC1(N(CCO)C(=O)c2ccccc2CC[C@@H](O)Cc2ccc(C)cc2C(=O)N(CCO)C(C)(C)c2ccccc2)CCCC1 [2-[(2R)-4-{2-[(1-ethylcyclopentyl)(2-hydroxyethyl)carbamoyl]phenyl}-2-hydroxybutyl]-N-(2-hydroxyethyl)-5-methyl-N-(2-phenylpropan-2-yl)benzamide],4.8 nM
5,CCC1(N(CCO)C(=O)c2ccccc2CCC(O)Cc2ccc(Cl)cc2C(=O)N(CCO)C(C)(C)c2ccccc2)CCCC1 (stereo not drawn) [Tertiary Amide deriv. 43cb],2 nM
6,CC(C)(C)NC(=O)c1ccccc1SCC(O)Cc1ccccc1C(=O)N(CCO)C(C)(C)C (stereo not drawn) [Tertiary Amide deriv. 6],34000 nM
7,CC(C)(C)N(CCO)C(=O)c1ccccc1CCC(O)Cc1ccccc1C(=O)N(CCO)C(C)(C)c1ccccc1 (stereo not drawn) [N-tert-butyl-2-(3-hydroxy-4-{2-[(2-hydroxyethyl)(2-phenylpropan-2-yl)carbamoyl]phenyl}butyl)-N-(2-hydroxyethyl)benzamide],90 nM
8,CC(C)(C)NC(=O)c1ccccc1CCC(O)Cc1ccccc1C(=O)NC(C)(C)C (stereo not drawn) [2-Butanol deriv. 8],24000 nM
9,CC(C)(C)NC(=O)c1c(CC[C@H](O)Cc2ccc3ccccc3c2C(=O)NC(C)(C)C)ccc2ccccc12 [N-tert-butyl-2-[(3S)-4-[1-(tert-butylcarbamoyl)naphthalen-2-yl]-3-hydroxybutyl]naphthalene-1-carboxamide],481 nM
10,CC(C)(C)NC(=O)c1c(CC[C@@H](O)Cc2ccc3ccccc3c2C(=O)NC(C)(C)C)ccc2ccccc12 [diarylbutanol deriv. 7R],25000 nM
11,"CC(C)(C)NC(=O)c1ccccc1C[C@@H](O)[C@H](Cc1ccccc1)NC(=O)[C@H](CC(N)=O)NC(=O)c1ccc2ccccc2n1 [(2S)-N-[(2S,3R)-4-[2-(tert-butylcarbamoyl)phenyl]-3-hydroxy-1-phenylbutan-2-yl]-2-(quinolin-2-ylformamido)butanediamide]",1.6 nM
12,CC(C)(C)NC(=O)c1ccccc1CC(O)CSc1ccccc1C(=O)NC(C)(C)C (stereo not drawn) [N-tert-butyl-2-(3-{[2-(tert-butylcarbamoyl)phenyl]sulfanyl}-2-hydroxypropyl)benzamide],83000 nM
13,CCC1(N(CCO)C(=O)c2ccccc2CC[C@H](O)Cc2ccc(C)cc2C(=O)N(CCO)C(C)(C)c2ccccc2)CCCC1 [2-[(2S)-4-{2-[(1-ethylcyclopentyl)(2-hydroxyethyl)carbamoyl]phenyl}-2-hydroxybutyl]-N-(2-hydroxyethyl)-5-methyl-N-(2-phenylpropan-2-yl)benzamide],1400 nM
